One may read the GI50 as the concentration that inhibits growth by half.

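All cell lines were grown in 96-well plates and treated with compound for 48 hours. GI50: concentration for 50% inhibition of growth.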 Active and inactive are the calls of the source. Rule as the data show it: active = GI50 up to about 1.1 µM and inactive = higher.

Data on five molecules can be found in ChEMBL document CHEMBL1201862, “PubChem BioAssay data set” (2004).

Common to all, as to test: DTP human tumour cell line panel, 48 h
For experiment [1], the system named is A498.
Experiment [2] relates to CCRF-CEM.
The test system of experiment [3] is COLO 205.
Experiment [4] relates to DLD-1.
In experiment [5] the test system is HCC 2998.
Experiment [6] concerns Malme-3M.
The subject of experiment [7] is NCI-H226.
Experiment [8] has as its system NCI-H23.
For experiment [9], the system named is OVCAR-5.
The test system of experiment [10] is SF-268.
Experiment [11] has as its system SF-295.
The subject of experiment [12] is SK-MEL-5.
Experiment [13] relates to SK-OV-3.
Experiment [14] concerns SN12C.
Experiment [15] has as its system SNB-19.
For experiment [16], the system named is SNB-75.
Experiment [17] deals with UACC-257.
Experiment [18] concerns UO-31.

For `O=C(CCC(=O)Nc1ccc(Cl)cc1)CC(=O)c1ccc2ccccc2c1`, the GI50 in [1], in experiment [2], in experiment [3], in [4], in [5] and in experiment [6] was > 100 µM (inactive) each time. For the same molecule, the GI50 in experiment [7], in [8], in experiment [9], in [10], in experiment [11] and in experiment [12] was > 100 µM (inactive) each time. The GI50 in experiment [13], in experiment [14], in experiment [15], in [16], in experiment [17] and in [18] was > 100 µM (inactive) each time.

Consider `O=C1C/C(Br)=C\c2ccccc2-c2ccccc21`, for which the GI50 in [1] is 8.51 µM (inactive); in [2], 1.06 µM (active); in [3], 3.76 µM (inactive); in experiment [4], 1.11 µM (active); in experiment [5], 7.14 µM (inactive); in experiment [6] it was 2.16 µM (inactive). In addition, the GI50 was 2.66 µM (inactive) in [7]; 3.16 µM (inactive) in experiment [8]; 2.69 µM (inactive) in [9]; 2.85 µM (inactive) in [10]; 4.98 µM (inactive) in experiment [11]; 5.4 µM (inactive) in experiment [12]. The GI50 in experiment [13] is 3.03 µM (inactive); in experiment [14], 2.04 µM (inactive); in experiment [15], 6.89 µM (inactive); in experiment [16], 2.26 µM (inactive); in [17], 4.19 µM (inactive); in [18], 2.4 µM (inactive).

Take `COC1[C@H](NC(=O)OC(C)(C)C)C(=O)N1Cc1ccccc1` (stereo not given in full): the GI50 in experiment [1] was 9.53 µM (inactive); in experiment [2] it was > 100 µM (inactive); in experiment [3] it was > 100 µM (inactive); in [4], > 100 µM (inactive); in [5], > 100 µM (inactive); in experiment [6] it was > 100 µM (inactive). For the same molecule, the GI50 in experiment [7], in experiment [8], in experiment [9], in [10], in experiment [11] and in experiment [12] was > 100 µM (inactive) in each case. The GI50 in experiment [13], in experiment [14], in [15], in experiment [16], in experiment [17] and in [18] was > 100 µM (inactive) each time.

For `O=C1C=C(O)C(=Cc2c(O)cc(O)cc2O)C(O)=C1`, the GI50 in [1], in [2], in experiment [3], in experiment [4], in experiment [5] and in experiment [6] was > 100 µM (inactive) each time. In addition, the GI50 in experiment [7], in experiment [8], in experiment [9], in experiment [10], in [11] and in [12] was > 100 µM (inactive) throughout. In addition, the GI50 in experiment [13], in experiment [14], in experiment [15], in experiment [16], in experiment [17] and in experiment [18] was > 100 µM (inactive) in each case.

In the case of `C#CCNC(=O)NCCCC(NC(C)=O)C(=O)NCc1ccccc1` (stereo not given), the GI50 in experiment [1], in [2], in experiment [3], in experiment [4], in experiment [5] and in experiment [6] was > 100 µM (inactive) each time. For the same molecule, the GI50 in experiment [7], in experiment [8], in [9], in experiment [10], in [11] and in experiment [12] was > 100 µM (inactive) in each case. Also, the GI50 in experiment [13], in [14], in [15], in experiment [16], in [17] and in experiment [18] was > 100 µM (inactive) in each case.
